From patent US20080274522A1, “METHOD FOR THE PRODUCTION OF 2-BUTANONE” (priority 2007, published 2008)
Like-named read-outs stand apart in the source and are kept apart here.

Key:
[1] = tested on: Lactobacillus plantarum PN0512; assay: Growth of L. plantarum PN0512 in the presence of butanols at different temperatures (OD600); type: cell-based; parameters: key to Growth of L. plantarum PN0512 in the presence of 1-butanol / Growth of L. plantarum PN0512 in the presence of isobutanol / Growth of L. plantarum PN0512 in the presence of 2-butanol: +: growth observed as an increase in OD600.; −: no growth observed, i.e. no change in OD600
Protocol: Tolerance levels of bacterial strain Lactobacillus plantarum PN0512 (ATCC # PTA-7727) were determined at 25° C., 30° C. and 37° C. as follows. The strain was cultured in S30L medium (i.e., 10 mM ammonium sulfate, 5 mM potassium phosphate buffer, pH 7.0, 50 mM MOPS, pH 7.0, 2 mM MgCl2, 0.7 mM CaCl2, 50 μM MnCl2, 1 μM FeCl3, 1 μM ZnCl2, 1.72 μM CuCl2, 2.53 μM COCl2, 2.42 μM Na2MoO4, 2 μM thiamine hydrochloride, 10 mM glucose, and 0.2% yeast extract). An overnight culture in the absence of any test compound was started in 15 mL of the S30L medium in a 150 mL flask, with incubation at 37° C. in a shaking water bath. The next morning, the overnight culture was diluted into three 500 mL flasks containing 150 mL of fresh medium to an initial OD600 of about 0.08. Each flask was incubated in a shaking water bath, one each at 25° C., 30° C. and 37° C. Each large culture was allowed to acclimate at the test temperature for at least 0.5 h. […] Growth was followed by measuring OD600 for six hours after addition of the compounds.

[2] = tested on: L. plantarum (strain PN0512); details: for % Survival at 37° C. / % Survival at 23° C. / % Survival at 0° C.: 1 h; for Concentration at which L. plantarum PN0512 cells were killed: one hour
Protocol: (§1) Using overnight cultures or cells from plates, 30 mL cultures of the microorganisms to be tested were started in the following culture media: • E. coli—Miller's LB medium (Teknova, Half Moon Bay, Calif.): • L. plantarum PN0512—Lactobacilli MRS Broth (BD Diagnostic Systems, Sparks, Md.). The E. coli and L. plantarum cultures were grown at 37° C. aerobically with shaking until the cultures were in log phase and the OD600 was between 0.6 and 0.8. A 50 μL aliquot of each culture was removed for a time zero sample. The remainder of the cultures was divided into six 5 mL portions and placed in six small incubation flasks or tubes. […] The flasks or tubes were incubated at a desired temperature, aerobically without shaking for 1 h. After the incubation with one of the butanols, 2 μL from each of the flasks (and in addition 2 μL of the time zero sample of the culture before exposure to one of the butanols) were pipetted into the “head” wells of a 96 well (8×12) microtiter plate, each containing 198 μL of LB medium to give a 10^−2 dilution of the culture. Subsequently, 10^−3, 10^−4, 10^−5, and 10^−6 serial dilutions of the cultures were prepared as follows. The 10^−3 dilution was prepared by pipetting 20 μL of the sample from the head well into the 180 μL LB medium in the next well using a multi-channel pipette. This procedure was repeated 3 more times on successive wells to prepare the 10^−4, 10^−5, and 10^−6 dilutions. After each liquid transfer, the solution in the well was mixed by pipetting it up and down 10 times with the multi-channel pipetor. A 5 μL aliquot of each dilution was spotted onto an LB plate using a multi-channel pipette starting with the 10^−6 dilution, then the 10^−5, and so on working from more to less dilute without a change of tips. The spots were allowed to soak into the agar by leaving the lid of the plate slightly open for 15 to 30 min in a sterile transfer hood. The plates were covered, inverted, and incubated overnight at 37° C. The following day, the number of colonies in the spots were counted from the different dilutions. The number of living cells/mL in each of the original culture solutions from which the 2 μL was withdrawn was calculated and compared to the number of cells in the control untreated culture to determine the % of the cells surviving.

E. coli (strain MG1655) = details: for % Survival at 30° C. / % Survival at 37° C. / % Survival at 0° C.: 1 h; for Concentration at which E. coli cells were killed: one hour
Protocol: as §1

Substance: 1-butanol
- Growth of L. plantarum PN0512 in the presence of 1-butanol ([1]; 1.0 % w/v, 37° C.): +
- Growth of L. plantarum PN0512 in the presence of 1-butanol ([1]; 1.2 % w/v, 37° C.): +
- Growth of L. plantarum PN0512 in the presence of 1-butanol ([1]; 1.4 % w/v, 37° C.): +
- Growth of L. plantarum PN0512 in the presence of 1-butanol ([1]; 1.5 % w/v, 25° C.): +
- Growth of L. plantarum PN0512 in the presence of 1-butanol ([1]; 1.5 % w/v, 30° C.): +
- Growth of L. plantarum PN0512 in the presence of 1-butanol ([1]; 1.5 % w/v, 37° C.): +
- Growth of L. plantarum PN0512 in the presence of 1-butanol ([1]; 1.6 % w/v, 37° C.): +
- Growth of L. plantarum PN0512 in the presence of 1-butanol ([1]; 1.8 % w/v, 37° C.): +
- Growth of L. plantarum PN0512 in the presence of 1-butanol ([1]; 2.0 % w/v, 25° C.): +
- Growth of L. plantarum PN0512 in the presence of 1-butanol ([1]; 2.0 % w/v, 30° C.): +
- Growth of L. plantarum PN0512 in the presence of 1-butanol ([1]; 2.0 % w/v, 37° C.): +
- Growth of L. plantarum PN0512 in the presence of 1-butanol ([1]; 2.1 % w/v, 37° C.): +
- Growth of L. plantarum PN0512 in the presence of 1-butanol ([1]; 2.2 % w/v, 37° C.): +
- Growth of L. plantarum PN0512 in the presence of 1-butanol ([1]; 2.3 % w/v, 37° C.): +
- Growth of L. plantarum PN0512 in the presence of 1-butanol ([1]; 2.4 % w/v, 25° C.): +
- Growth of L. plantarum PN0512 in the presence of 1-butanol ([1]; 2.4 % w/v, 30° C.): +
- Growth of L. plantarum PN0512 in the presence of 1-butanol ([1]; 2.4 % w/v, 37° C.): −^2
- Growth of L. plantarum PN0512 in the presence of 1-butanol ([1]; 2.7 % w/v, 30° C.): +
- Growth of L. plantarum PN0512 in the presence of 1-butanol ([1]; 2.7 % w/v, 37° C.): −
- Growth of L. plantarum PN0512 in the presence of 1-butanol ([1]; 2.9 % w/v, 25° C.): +
- Growth of L. plantarum PN0512 in the presence of 1-butanol ([1]; 2.9 % w/v, 30° C.): −
- Growth of L. plantarum PN0512 in the presence of 1-butanol ([1]; 2.9 % w/v, 37° C.): −
- Growth of L. plantarum PN0512 in the presence of 1-butanol ([1]; 3.1 % w/v, 25° C.): +
- Growth of L. plantarum PN0512 in the presence of 1-butanol ([1]; 3.1 % w/v, 30° C.): −
- Growth of L. plantarum PN0512 in the presence of 1-butanol ([1]; 3.1 % w/v, 37° C.): −
- Growth of L. plantarum PN0512 in the presence of 1-butanol ([1]; 3.2 % w/v, 25° C.): −
- Growth of L. plantarum PN0512 in the presence of 1-butanol ([1]; 3.2 % w/v, 30° C.): −
- Growth of L. plantarum PN0512 in the presence of 1-butanol ([1]; 3.3 % w/v, 25° C.): −
- Growth of L. plantarum PN0512 in the presence of 1-butanol ([1]; 3.4 % w/v, 25° C.): −
- Growth of L. plantarum PN0512 in the presence of 1-butanol ([1]; 3.4 % w/v, 30° C.): −
- Concentration in which growth was observed ([1]; 25° C.): 3.1%
- Concentration in which growth was not observed ([1]; 30° C.): 2.9%
- Concentration in which growth was observed ([1]; 30° C.): 2.7%
- Concentration in which growth was not observed ([1]; 37° C.): 2.4%
- Concentration in which growth was observed ([1]; 37° C.): 2.3%
- Growth of L. plantarum PN0512 in the presence of 1-butanol ([1]; […] w/v, 37° C.): −
- Concentration with no toxic effect on L. plantarum PN0512 cells ([2]; 0° C., one hour treatment): ≤ 4.5 % v/v
- % Survival at 37° C. ([2]; 1-butanol 1 % v/v): 80%
- % Survival at 37° C. ([2]; 1-butanol 1.5 % v/v): 58%
- % Survival at 23° C. ([2]; 1-butanol 2 % v/v): 100%
- % Survival at 37° C. ([2]; 1-butanol 2 % v/v): 29%
- % Survival at 0° C. ([2]; 1-butanol 3 % v/v): 100%
- % Survival at 23° C. ([2]; 1-butanol 3 % v/v): 82%
- % Survival at 37° C. ([2]; 1-butanol 3 % v/v): 0%
- % Survival at 0° C. ([2]; 1-butanol 4 % v/v): 100%
- % Survival at 23° C. ([2]; 1-butanol 4 % v/v): 0%
- % Survival at 0° C. ([2]; 1-butanol 5 % v/v): 0%
- % Survival at 0° C. ([2]; 1-butanol 5.5 % v/v): 0%
- % Survival at 0° C. ([2]; 1-butanol […] v/v): 100%
- Concentration at which L. plantarum PN0512 cells were killed ([2]; 23° C.): 3.5 % v/v
- Concentration at which L. plantarum PN0512 cells were killed ([2]; 37° C.): 2.5 % v/v
- Concentration with no toxic effect on E. coli cells (E. coli (strain MG1655); 0° C., one hour treatment): ≤ 4.5 % v/v
- % Survival at 30° C. (E. coli (strain MG1655); 1-butanol 1 % v/v): 100%
- % Survival at 37° C. (E. coli (strain MG1655); 1-butanol 1 % v/v): 72%
- % Survival at 30° C. (E. coli (strain MG1655); 1-butanol 1.5 % v/v): 100%
- % Survival at 37° C. (E. coli (strain MG1655); 1-butanol 1.5 % v/v): 20%
- % Survival at 30° C. (E. coli (strain MG1655); 1-butanol 2 % v/v): 100%
- % Survival at 37° C. (E. coli (strain MG1655); 1-butanol 2 % v/v): 0%
- % Survival at 0° C. (E. coli (strain MG1655); 1-butanol 3 % v/v): 100%
- % Survival at 30° C. (E. coli (strain MG1655); 1-butanol 3 % v/v): 0%
- % Survival at 37° C. (E. coli (strain MG1655); 1-butanol 3 % v/v): 0%
- % Survival at 0° C. (E. coli (strain MG1655); 1-butanol 4 % v/v): 100%
- % Survival at 0° C. (E. coli (strain MG1655); 1-butanol […] v/v): 100%
- % Survival at 37° C. (E. coli (strain MG1655); 1-butanol […] v/v): 0%
- Concentration at which E. coli cells were killed (E. coli (strain MG1655); 30° C.): 3 % v/v
- Concentration at which E. coli cells were killed (E. coli (strain MG1655); 37° C.): 2 % v/v
